Key:
[1] = biological target: T1, PKR in ex vivo red blood cells from healthy individuals (Homo sapiens, UniProt P30613); assay: ex vivo pyruvate kinase (PKR) activity experiment, red blood cells of healthy individuals; assay type: cell-based; conditions: 3 hours co-cultivation
T1 construct: endogenous in cells; host or cells: human red blood cells isolated from fresh peripheral blood of healthy individuals
Description: To test the effects of the compound of the present disclosure on PKR activation in ex vivo red blood cells from healthy individuals and patients with thalassemia.
• i. 5 g of glucose, 85 mg of adenine, and 2.625 g of mannitol were weighed and added into a 50 mL centrifuge tube. 40 mL of PBS was added to dissolve (sonicate for 30 minutes until completely dissolved). The solution was filtered through a 0.22 µm filter, then added to 460 mL of sterile PBS and mixed thoroughly.
• i. Fresh human peripheral blood was collected. K2EDTA was used as the anticoagulant. 1 part anticoagulant with 9 parts blood was mixed, then centrifuged at 500 g for 10 minutes at room temperature to remove the plasma. • ii. Packed red blood cells: 1.5 volumes of PBS were added, then centrifuged at 2000 ×g for 5 minutes at room temperature. After centrifugation, the supernatant was removed. This step was repeated twice. • iii. Diluted red blood cells: 1.5 volumes of PBS were added, then resuspended and mixed thoroughly. • iv. The diluted red blood cells were slowly added to 0.5 volume of 70% isotonic solution (e.g., 7.5 mL of diluted red blood cells + 3 mL of 70% isotonic solution Percoll) and centrifuged at 4000 ×g for 20 minutes at 4°C. • v. The supernatant was removed. The red blood cells at the bottom were washed once with 4-5 mL of PBS to elute the Percoll gel, and then centrifuged at 2000 ×g for 5 minutes at room temperature. • vi. The supernatant was removed. The red blood cells were counted and then diluted in AGAM medium containing 10% FBS to a density of 2 × 10^8 cells/mL for storage at 4°C.
i. The red blood cells were seeded into a 96-well plate at a uniform density of 1 × 10^7 cells/mL, with 100 µL per well. The test compounds (dissolved in DMSO) were diluted and added to the cell culture medium, resulting in final compound concentrations of 3000, 1000, 300, 100, 10, 3, and 1 nM (with 1% DMSO). The cells and compounds were co-cultivated for 3 hours in a 37°C incubator with 5% CO2. Subsequently, the plate was centrifuged at 2000 g for 20 minutes, and the supernatant was discarded. 100 µL of red blood cell lysis buffer was added to the cell pellet, vortexed for 20 minutes, and centrifuged at 4000 g for 5 minutes. The supernatant was collected for analysis. ii. The reaction system was prepared according to the kit instructions (shown as the table below), 10 µL of the reaction system was added to each well of a 384-well plate, and 10 µL of red blood cell lysis buffer was took and mixed well (20 µL reaction system).
iii. A black, transparent-bottomed 384-well plate was placed in a microplate reader to measure fluorescence at 540/590 nm. The fluorescence was read every 2 minutes for 1 hour.
i. The Slope value was calculated over the assay time. Compound activation percentage was calculated using the 1% DMSO well as the control well. Activation percentage = (Slope of compound well / Slope of control well) × 100% ii. Dose-response curve was fit using the logarithmic compound concentration on the X-axis and the percent activation percentage on the Y-axis, the log(agonist) vs. response - variable slope function in GraphPad Prism 5 was used to determine the AC50 value for each compound on PKR activity. Y = min + (max−min)/(1+10^(∧)((LogAC50−X)×Hillslope)). [formula] The PKR agonist effects of the compound of the present disclosure on ex vivo red blood cells from healthy individuals and thalassemia patients were determined using the above assay. The AC50 values measured on ex vivo red blood cells from healthy individuals are as follows (A represents 0-100 nM, B represents 101-300 nM, and C represents 300-1000 nM): […]

[2] = biological target: recombinant human PKR (Homo sapiens, UniProt P30613); assay: pyruvate kinase (PKR) activity test, activation of recombinant enzyme (fluorescence kit); assay type: biochemical
Description: To test the activation effect of the compound of the present disclosure on recombinant human PKR.
3.1 A recombinant human PKR enzyme solution was prepared at a concentration of 60 ng/well (a 20 µL reaction system), and 5 µL of the solution was added into each well of a black transparent bottom 384-well plate.
3.2 Compound solutions were prepared at different concentrations, with the final concentrations of 1000/300/100 nM (containing 1% DMSO). Each 5 µL of the compound solution was added into the plate in step 3.1 and mixed well. The plate was incubated at room temperature for 10 min.
3.3 A reaction system was prepared according to the instructions of a kit (as shown in the table below), and 10 µL of the reaction system was added into each well of the 384-well plate, and mixed uniformly with the solution in step 3.2.
3.4 The 384-well plate was placed on a microplate reader to detect the fluorescence value at 540/590 nm, where the value was read every 2 minutes and the detection was conducted continuously for 1 hour.
3.5 The Slope value within the detection time was calculated, and the 1% DMSO well was used as a control well to calculate a compound activation rate. Activation rate % = (Slopeofcompoundwell/Slopeofcontrolwell) × 100% [formula]
With the log value of the compound concentration as the X axis and the percentage activation rate as the Y axis, a dose-effect curve was fitted with the log(agonist) vs. response-variable slope of the analysis software GraphPad Prism 5, and the AC50 value of the activity of each compound against PKR was obtained. Y = min + (max−min)/(1+10^(∧)((LogAC50−X)×Hillslope)). [formula]

Chain of recombinant human PKR (P30613 whole entry): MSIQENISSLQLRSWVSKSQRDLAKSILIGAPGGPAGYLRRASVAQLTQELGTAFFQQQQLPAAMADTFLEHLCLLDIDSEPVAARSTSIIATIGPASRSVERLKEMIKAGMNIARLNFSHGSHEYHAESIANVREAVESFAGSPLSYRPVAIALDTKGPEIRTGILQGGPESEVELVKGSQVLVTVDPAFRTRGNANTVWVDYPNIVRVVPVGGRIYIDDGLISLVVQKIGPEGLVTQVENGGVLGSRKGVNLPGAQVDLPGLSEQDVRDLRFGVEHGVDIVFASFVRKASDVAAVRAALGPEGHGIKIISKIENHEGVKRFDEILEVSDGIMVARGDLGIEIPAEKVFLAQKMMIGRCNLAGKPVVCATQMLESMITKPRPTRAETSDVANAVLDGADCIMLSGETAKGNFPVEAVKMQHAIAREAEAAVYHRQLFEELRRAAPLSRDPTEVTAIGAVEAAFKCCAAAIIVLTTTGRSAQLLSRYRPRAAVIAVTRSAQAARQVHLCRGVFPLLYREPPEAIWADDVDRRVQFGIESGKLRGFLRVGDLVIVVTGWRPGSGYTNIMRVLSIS
T1 sequence (P30613 whole entry): as above

| Structure (SMILES) | AC50 [1] | AC50 [2] |
| --- | --- | --- |
| O=C(C(O)c1ccccc1)N1CC(=C2CN(S(=O)(=O)c3ccc(OC(F)F)cc3)C2)C1 (stereo not drawn) [Compound 8, 1-(1'-((4-(difluoromethoxy)phenyl)sulfonyl)-1',4'-dihydro-2H,2'H-[3,3'-diazetidinylidene]-1(4H)-yl)-2-hydroxy-2-phenylethan-1-one] | < 100 nM | 300 to 1000 nM |
| O=C(N1CC(=C2CN(S(=O)(=O)c3ccc(OC(F)F)cc3)C2)C1)C1(c2ccccc2)CCOCC1 [Compound 14, (1'-((4-(difluoromethoxy)phenyl)sulfonyl)-1',4'-dihydro-2H,2'H-[3,3'-diazetidinylidene]-1(4H)-yl)(4-phenyltetrahydro-2H-pyran-4-yl)methanone] | 101 to 300 nM | 101 to 300 nM |
| O=C(C(CO)c1ccc(F)cc1)N1CC(=C2CN(S(=O)(=O)c3ccc4c(c3)OCCO4)C2)C1 (stereo not drawn) [Compound 18, 1-(1'-((2,3-dihydrobenzo[b][1,4]dioxin-6-yl)sulfonyl)-1',4'-dihydro-2H,2'H-[3,3'-diazetidinylidene]-1 (4H)-yl)-2-(4-fluorophenyl)-3-hydroxypropan-1-one] | < 100 nM | < 100 nM |
| O=C(C(CO)c1ccc(F)cc1)N1CC(=C2CN(S(=O)(=O)c3cnc4c(c3)OCCO4)C2)C1 (stereo not drawn) [Compound 19, 1-(1'-((2,3-dihydro-[1,4]dioxolane[2,3-b]pyridin-7-yl)sulfonyl)-1',4'-dihydro-2H,2'H-[3,3'-diazetidinylidene]-1(4H)-yl)-2-(4-fluorophenyl)-3-hydroxypropan-1-one] | 300 to 1000 nM | 101 to 300 nM |
| NC(C(=O)N1CC(=C2CN(S(=O)(=O)c3ccc(OC(F)F)cc3)C2)C1)c1ccccc1 (stereo not drawn) [Compound 21, 2-amino-1-(1'-((4-(difluoromethoxy)phenyl)sulfonyl)-1',4'-dihydro-2H,2'H-[3,3'-diazetidinylidene]-1 (4H)-yl)-2-phenylethan-1-one] | < 100 nM | 300 to 1000 nM |
| CNCC(C(=O)N1CC(=C2CN(S(=O)(=O)c3ccc4c(c3)OCCO4)C2)C1)c1cccc(Cl)c1 (stereo not drawn) [Compound 26, 2-(3-chlorophenyl)-1-(1'-((2,3-dihydrobenzo[b][1,4]dioxin-6-yl)sulfonyl)-1',4'-dihydro-2H,2'H-[3,3'-diazetidinylidene]-1(4H)-yl)-3-(methylamino)propan-1-one] | 300 to 1000 nM | < 100 nM |
| O=C(N1CC(=C2CN(S(=O)(=O)c3ccc4ncsc4c3)C2)C1)C1(c2ccccc2)CCOCC1 [Compound 29, (1'-(benzo[d]thiazol-6-ylsulfonyl)-1',4'-dihydro-2H,2'H-[3.3'-diazetidinylidene]-1(4H)-yl)(4-phenyltetrahydro-2H-pyran-4-yl)methanone] | < 100 nM | < 100 nM |
| Cc1nc2ccc(S(=O)(=O)N3CC(=C4CN(C(=O)[C@H](CO)c5ccccc5)C4)C3)cc2s1 [Compound 35, (S)-3-hydroxy-1-(1'-((2-methylbenzo[d]thiazol-6-yl)sulfonyl)-1',4'-dihydro-2H,2'H-[3,3'-diazetidinylidene]-1(4H)-yl)-2-phenylpropan-1-one] | < 100 nM | < 100 nM |
| CN1CCOc2ccc(S(=O)(=O)N3CC(=C4CN(C(=O)[C@H](CO)c5ccccc5)C4)C3)cc21 [Compound 39, (S)-3-hydroxy-1-(1'-((4-methyl-3,4-dihydro-2H-benzo[b][1,4]oxazin-6-yl)sulfonyl)-1',4'-dihydro-2H, 2'H-[3,3'-diazetidinylidene]-1(4H)-yl)-2-phenylpropan-1-one] | < 100 nM | < 100 nM |
| O=C(C(CO)C1CCCCC1)N1CC(=C2CN(S(=O)(=O)c3ccccn3)C2)C1 (stereo not drawn) [Compound 90, 2-cyclohexyl-3-hydroxy-1-(1'-(pyridin-2-ylsulfonyl)-1',4'-dihydro-2H,2'H-[3,3'-diazetidinylidene]-1(4H)-yl)propan-1-one] | 300 to 1000 nM | – |

Continued, values first:

| AC50 [1] | AC50 [2] | Structure (SMILES) |
| --- | --- | --- |
| 101 to 300 nM | < 100 nM | O=C(C(CO)c1ccccc1)N1CC(=C2CN(S(=O)(=O)c3ccc(OC(F)F)cc3)C2)C1 (stereo not drawn) [Compound 6, 1-(1'-((4-(difluoromethoxy)phenyl)sulfonyl)-1',4'-dihydro-2H,2'H-[3,3'-diazetidinylidene]-1(4H)-yl)-3-hydroxy-2-phenylpropan-1-one] |
| 300 to 1000 nM | 300 to 1000 nM | O=C([C@H](CO)c1ccccc1)N1CC(=C2CN(S(=O)(=O)c3ccc(-c4ncco4)c(F)c3)C2)C1 [Compound 27, (S)-1-(1'-((3-fluoro-4-(oxazol-2-yl)phenyl)sulfonyl)-1',4'-dihydro-2H,2'H-[3,3'-diazetidinylidene]-1(4 H)-yl)-3-hydroxy-2-phenylpropan-1-one] |
| 300 to 1000 nM | – | Cn1cnc2ccc(S(=O)(=O)N3CC(=C4CN(C(=O)[C@H](CO)c5ccccc5)C4)C3)cc21 [Compound 63, (S)-3-hydroxy-1-(1'-((1-methyl-1H-benzimidazol-6-yl)sulfonyl)-1',4'-dihydro-2H,2'H-[3,3'-diazetidinylidene]-1(4H)-yl)-2-phenylpropan-1-one] |
| < 100 nM | – | O=C([C@H](CO)c1ccccc1)N1CC(=C2CN(S(=O)(=O)c3ccc(Cl)cn3)C2)C1 [Compound 66] |
| 101 to 300 nM | – | O=C([C@H](CO)c1ccccc1)N1CC(=C2CN(S(=O)(=O)c3cccnc3)C2)C1 [Compound 68, (S)-3-hydroxy-2-phenyl-1-(1'-(pyridin-3-ylsulfonyl)-1',4'-dihydro-2H,2'H-[3,3'-diazetidinylidene]-1(4H)-yl)propane-1-one] |
| 101 to 300 nM | – | N#Cc1ccc(S(=O)(=O)N2CC(=C3CN(C(=O)[C@H](CO)c4ccccc4)C3)C2)nc1 [Compound 70, (S)-6-((1'-(3-hydroxy-2-phenylpropionyl)-1',4'-dihydro-2H,2'H-[3,3'-diazetidinylidene]-1(4H)-yl)sulfonyl)nicotinonitrile] |
| 101 to 300 nM | – | O=C(C(CO)c1ccc(C(F)F)cc1)N1CC(=C2CN(S(=O)(=O)c3ccccn3)C2)C1 (stereo not drawn) [Compound 71, 2-(4-(difluoromethyl)phenyl)-3-hydroxy-1-(1'-(pyridin-2-ylsulfonyl)-1',4'-dihydro-2H,2'H-[3,3'-diazetidinylidene]-1(4H)-y 1)propan-1-one] |
| 300 to 1000 nM | – | CC(C)Oc1ccc(S(=O)(=O)N2CC(=C3CN(C(=O)[C@H](CO)c4ccccc4)C3)C2)nc1 [Compound 81, (S)-3-hydroxy-1-(1'-((5-isopropoxypyridin-2-yl)sulfonyl)-1',4'-dihydro-2H,2'H-[3,3'-diazetidinylidene]-1(4H)-yl)-2-phenylpropan-1-one] |
| 101 to 300 nM | – | O=C([C@H](CO)c1ccccc1)N1CC(=C2CN(S(=O)(=O)c3ccc(OC4CC4)cn3)C2)C1 [Compound 82, (S)-1-(1'-((5-cyclopropoxypyridin-2-yl)sulfonyl)-1',4'-dihydro-2H,2'H-[3,3'-diazetidinylidene]-1(4H) -yl)-3-hydroxy-2-phenylpropan-1-one] |

From patent EP4721737A1, “USE OF PHARMACEUTICAL COMPOSITION COMPRISING COMPOUND HAVING BIS(AZANYLYLIDENE) SULFONYL STRUCTURE FOR TREATING ANEMIA-RELATED DISEASES” (Scinnohub Pharmaceutical Co., Ltd., priority 2023, dated 2024)
